From patent US7022856B2, “Carboline derivatives” (LIlly Icos LLC., priority 2001, dated 2006) come the findings set out here.

pIC50: −log10 of the molar value.

Data set [1] has as its target T1, human recombinant PDE5 (Homo sapiens, UniProt O76074).
T1 construct: host or cells: Saccharomyces cerevisiae strain BJ2-54 (ATCC 74465)
Nature of the data set: cGMP-PDE inhibition, one-step assay with human recombinant PDE5. The format is biochemical. To be noted: 0.15 μM 8-[H3]-cGMP, 30 min. Here is the method:
The compounds of structural formula (I) were tested for an ability to inhibit PDE5. The ability of a compound to inhibit PDE5 activity is related to the IC50 value for the compound, i.e., the concentration of inhibitor required for 50% inhibition of enzyme activity. The IC50 value for compounds pounds of structural formula (I) were determined using recombinant human PDE5.
Recombinant production of human PDE1B, PDE2, PDE4A, PDE4B, PDE4C, PDE4D, PDE5, and PDE7 was carried out similarly to that described in Example 7 of U.S. Pat. No. 5,702,936, incorporated herein by reference, except that the yeast transformation vector employed, which is derived from the basic ADH2 plasmid described in Price et al., Methods in Enzymology, 185, pp. 308–318 (1990), incorporated yeast ADH2 promoter and terminator sequences and the Saccharomyces cerevisiae host was the protease-deficient strain BJ2-54 deposited on Aug. 31, 1998 with the American Type Culture Collection, Manassas, Va., under accession number ATCC 74465. Transformed host cells were grown in 2×SC-leu medium, pH 6.2, with trace metals, and vitamins. After 24 hours, YEP medium-containing glycerol was added to a final concentration of 2×YET/3% glycerol. Approxiately 24 hr later, cells were harvested, washed, and stored at −70° C. […]
Cell pellets (29 g) were thawed on ice with an equal volume of Lysis Buffer (25 mM Tris HCl, pH 8, 5 mM MgCl2, 0.25 mM DTT, 1 mM benzamidine, and 10 μM ZnSO4). Cells were lysed in a Microfluidizer® (Microfluidics Corp.) using nitrogen at 20,000 psi. The lysate was centrifuged and filtered through 0.45 μm disposable filters. The filtrate was applied to a 150 mL column of Q SEPHAROSE® Fast-Flow (Pharmacia). The column was washed with 1.5 volumes of Buffer A (20 mM Bis-Tris Propane, pH 6.8, 1 mM MgCl2, 0.25 mM DTT, 10 μM ZnSO4) and eluted with a step gradient of 125 mM NaCl in Buffer A followed by a linear gradient of 125–1000 mM NaCl in Buffer A. Active fractions from the linear gradient were applied to a 180 mL hydroxyapatite column in Buffer B (20 mM Bis-Tris Propane (pH 6.8), 1 mM MgCl2, 0.25 mM DTT, 10 μM ZnSO4, and 250 mM KCl). After loading, the column was washed with 2 volumes of Buffer B and eluted with a linear gradient of 0–125 mM potassium phosphate in Buffer B. Active fractions were pooled, precipitated with 60% ammonium sulfate, and resuspended in Buffer C (20 mM Bis-Tris Propane, pH 6.8, 125 mM NaCl, 0.5 mM DTT, and 10 μM ZnSO4). The pool was applied to a 140 mL column of SEPHACRYL® S-300 HR and eluted with Buffer C. Active fractions were diluted to 50% glycerol and stored at −20° C.
cGMP-PDE activity of compounds of the present invention was measured using a one-step assay adapted from Wells et al., Biochim. Biophys. Acta, 384, 430 (1975). The reaction medium contained 50 mM Tris-HCl, pH 7.5, 5 mM magnesium acetate. 250 μg/ml 5′-Nucleotidase, 1 mM EGTA, and 0.15 μM 8-[H^3]-cGMP. Unless otherwise indicated, the enzyme used was a human recombinant PDE5 (ICOS Corp., Bothell, Wash.).
Compounds of the invention were dissolved in DMSO finally present at 2% in the assay.

The compound `O=C(c1ccc2ccccc2c1)N1CCc2c([nH]c3ccccc23)[C@H]1c1ccc2c(c1)OCO2` [Example 2, 1-(2H-benzo[d]1,3-dioxolan-5-yl)(1R)(1,2,3,4-tetrahydro-β-carbolin-2-yl)2-naphthyl ketone] yielded a melting point of 285 °C. For the same compound, in data set [1], the negative-log IC50 (pIC50) was 6.15.
The like results for `Cc1c(S(=O)(=O)N2CCc3c([nH]c4ccccc34)[C@H]2c2ccc3c(c2)OCO3)sc2ccc(Cl)cc12` [Example 45] were, in that order, 139 to 143 °C and 6.66.
